{"source": "patent US20250263390A1", "about": "“NOVEL SUBSTITUTED 6,7-DIHYDRO-5H-BENZO[7]ANNULENE COMPOUNDS AND THEIR DERIVATIVES, PROCESSES FOR THEIR PREPARATION AND THERAPEUTIC USES THEREOF” (SANOFI, priority 2022, published 2025)", "target": "T1, ERα (Homo sapiens, UniProt P03372)", "T1 construct": "host or cells: MCF7", "T1 sequence (P03372 1-595)": "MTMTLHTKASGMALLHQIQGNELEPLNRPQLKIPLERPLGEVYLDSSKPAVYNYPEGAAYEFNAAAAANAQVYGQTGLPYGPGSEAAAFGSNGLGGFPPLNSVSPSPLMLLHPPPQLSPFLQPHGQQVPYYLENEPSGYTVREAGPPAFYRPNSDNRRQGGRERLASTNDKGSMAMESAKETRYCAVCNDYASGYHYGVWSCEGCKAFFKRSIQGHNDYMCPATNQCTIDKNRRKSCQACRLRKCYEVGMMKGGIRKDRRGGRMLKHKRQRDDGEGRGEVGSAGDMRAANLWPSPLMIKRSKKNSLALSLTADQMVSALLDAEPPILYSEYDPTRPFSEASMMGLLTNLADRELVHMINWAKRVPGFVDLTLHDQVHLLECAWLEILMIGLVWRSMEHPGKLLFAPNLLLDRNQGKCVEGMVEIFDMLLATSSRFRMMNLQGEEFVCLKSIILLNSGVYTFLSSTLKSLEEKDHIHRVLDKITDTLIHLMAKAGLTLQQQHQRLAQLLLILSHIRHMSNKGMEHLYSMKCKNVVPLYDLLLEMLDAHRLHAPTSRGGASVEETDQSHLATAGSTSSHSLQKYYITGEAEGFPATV", "test": "Estrogen receptor degradation activity: breast cancer cell ERα in cell western assay", "type": "cell-based", "details": "MCF7 cells, 4 hours, relative to fulvestrant 0.1 μM positive control", "summary_of_the_method": "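MCF7 cells in phenol red-free medium with 5% charcoal-stripped FBS, 4 h exposure to 9-point 1:5 dilutions (final 0.3–0.0000018 μM). ERα immunostained in fixed cells and normalised to DNA dye; % decrease scaled between DMSO and 0.1 μM fulvestrant, IC50 reported in nM.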"}
{"smiles": "Cc1ccc(C2=C(c3ccc(CC4CN(CCCF)C4)cc3)c3ccc(C(=O)O)cc3CCC2)cc1C(F)(F)F", "note": "[Compound 29, 9-(4-((1-(3-fluoropropyl)azetidin-3-yl)methyl)phenyl)-8-(4-methyl-3-(trifluoromethyl)phenyl)-6,7-dihydro-5H-benzo[7]annulene-3-carboxylic acid]", "values": [{"measurement": "% Degradation At 0.3 μM", "value": 93, "unit": "%"}]}
{"smiles": "Cc1c(OC(F)F)cccc1C1=C(c2ccc(CC3CN(CCCF)C3)cc2)c2ccc(C(=O)O)cc2CCC1", "note": "[Compound 14, 8-(3-(difluoromethoxy)-2-methylphenyl)-9-(4-((1-(3-fluoropropyl)azetidin-3-yl)methyl)phenyl)-6,7-dihydro-5H-benzo[7]annulene-3-carboxylic acid]", "values": [{"measurement": "% Degradation At 0.3 μM", "value": 93, "unit": "%"}]}
{"smiles": "COc1cc(C2=C(c3ccc(CC4CN(CCCF)C4)cc3)c3ccc(C(=O)O)cc3CCC2)ccc1C(F)(F)F.Cl", "note": "[Compound 19, 9-(4-((1-(3-fluoropropyl)azetidin-3-yl)methyl)phenyl)-8-(3-methoxy-4-(trifluoromethyl)phenyl)-6,7-dihydro-5H-benzo[7]annulene-3-carboxylic acid, hydrochloride]", "values": [{"measurement": "% Degradation At 0.3 μM", "value": 93, "unit": "%"}]}
{"smiles": "Cc1cccc(F)c1C1=C(c2ccc(CC3CN(CCCF)C3)cc2)c2ccc(C(=O)O)cc2CCC1.Cl", "note": "[Compound 41, 8-(2-fluoro-6-methylphenyl)-9-(4-((1-(3-fluoropropyl)azetidin-3-yl)methyl)phenyl)-6,7-dihydro-5H-benzo[7]annulene-3-carboxylic acid, hydrochloride]", "values": [{"measurement": "% Degradation At 0.3 μM", "value": 91, "unit": "%"}]}
{"smiles": "COc1cccc(C)c1C1=C(c2ccc(CC3CN(CCCF)C3)cc2)c2ccc(C(=O)O)cc2CCC1.Cl", "note": "[Compound 48, 9-(4-((1-(3-fluoropropyl)azetidin-3-yl)methyl)phenyl)-8-(2-methoxy-6-methylphenyl)-6,7-dihydro-5H-benzo[7]annulene-3-carboxylic acid, hydrochloride]", "values": [{"measurement": "% Degradation At 0.3 μM", "value": 92, "unit": "%"}]}
{"smiles": "CCc1cccc(C2=C(c3ccc(CC4CN(CCCF)C4)cc3)c3ccc(C(=O)O)cc3CCC2)c1C(F)(F)F", "note": "[Compound 68, 8-(3-ethyl-2-(trifluoromethyl)phenyl)-9-(4-((1-(3-fluoropropyl)azetidin-3-yl)methyl)phenyl)-6,7-dihydro-5H-benzo[7]annulene-3-carboxylic acid]", "values": [{"measurement": "% Degradation At 0.3 μM", "value": 92, "unit": "%"}]}
{"smiles": "Cc1ccc(C(F)(F)F)cc1C1=C(c2ccc(CC3CN(CCCF)C3)cc2)c2ccc(C(=O)O)cc2CCC1", "note": "[Compound 18, 9-(4-((1-(3-fluoropropyl)azetidin-3-yl)methyl)phenyl)-8-(2-methyl-5-(trifluoromethyl)phenyl)-6,7-dihydro-5H-benzo[7]annulene-3-carboxylic acid]", "values": [{"measurement": "% Degradation At 0.3 μM", "value": 78, "unit": "%"}]}
{"smiles": "O=C(O)c1ccc2c(c1)CCCC(c1cccc(C(F)(F)F)c1C(F)(F)F)=C2c1ccc(CC2CN(CCCF)C2)cc1", "note": "[Compound 59, 8-(2,3-bis(trifluoromethyl)phenyl)-9-(4-((1-(3-fluoropropyl)azetidin-3-yl)methyl)phenyl)-6,7-dihydro-5H-benzo[7]annulene-3-carboxylic acid]", "values": [{"measurement": "% Degradation At 0.3 μM", "value": 95, "unit": "%"}]}
{"smiles": "COc1cccc(C2=C(c3ccc(CC4CN(CCCF)C4)cc3)c3ccc(C(=O)O)cc3CCC2)c1C(F)F", "note": "[Compound 8, 8-(2-(difluoromethyl)-3-methoxyphenyl)-9-(4-((1-(3-fluoropropyl)azetidin-3-yl)methyl)phenyl)-6,7-dihydro-5H-benzo[7]annulene-3-carboxylic acid]", "values": [{"measurement": "% Degradation At 0.3 μM", "value": 89, "unit": "%"}]}
{"smiles": "C=Cc1c(F)cccc1C1=C(c2ccc(CC3CN(CCCF)C3)cc2)c2ccc(C(=O)O)cc2CCC1", "note": "[Compound 36, 8-(3-fluoro-2-vinylphenyl)-9-(4-((1-(3-fluoropropyl)azetidin-3-yl)methyl)phenyl)-6,7-dihydro-5H-benzo[7]annulene-3-carboxylic acid]", "values": [{"measurement": "% Degradation At 0.3 μM", "value": 92, "unit": "%"}]}
{"smiles": "COc1cccc(C2=C(c3ccc(CC4CN(CCCF)C4)cc3)c3ccc(C(=O)O)cc3CCC2)c1C(F)(F)F", "note": "[Compound 11, 9-(4-((1-(3-fluoropropyl)azetidin-3-yl)methyl)phenyl)-8-(3-methoxy-2-(trifluoromethyl)phenyl)-6,7-dihydro-5H-benzo[7]annulene-3-carboxylic acid]", "values": [{"measurement": "% Degradation At 0.3 μM", "value": 86, "unit": "%"}]}
